Key:
[1] = system: histamine stimulated gastric acid secretion from rat stomach; experiment: Gastric acid secretion measured in vivo (histamine stimulated); design: species or system rat (male Wistar); conditions: for Acid output, mean: histamine 2 mg/kg bolus; for Acid output compared to the histamine control (in words): treated orally, then challenged with histamine, FIGS. 1-3
Procedure: (§1) Male Wistar rats (weighing 200-225 g) were fasted for 24 hours in wire mesh cages to avoid coprophagy. The rats were obtained from the animal facilities of the Faculty of Medicine and Health Sciences of the United Arab Emirates (UAE) University. Materials
Groups of six rats were used for the experiment. Rats were initially anesthetized with urethane (1.5 g/kg) intraperitoneally. Following general anesthesia, a laparotomy was immediately performed followed by the insertion of a polyethylene tube at the pyloric end of the stomach. This tube was used to collect exudates from the stomach. An orogastric tube was inserted in the stomach via the esophagus. This tube was used to perfuse the stomach with saline (pH 7) at a constant rate of 7 mL/min at 37° C. Following perfusion, effluent samples were collected and titrated against 0.01 M NaOH every 15 minutes for acid secretion. After basal acid output for 1 hour, either saline, quercetin (50 mg/kg,), or diallyl sulfide (50 mg/kg), or allyl disulfide (10 mg/kg) at neutral pH was given orally and 30 minutes later, histamine (2 mg/kg) was administered as a bolus injection. Acid output was monitored continuously for 2 hours thereafter. The acid output was calculated and expressed as μmol (15 min^−1).

[2] = system: gastric ulcer formation in rat stomachs; experiment: Antiulcer activity, acidified ethanol-induced gastric ulcer; assay type: in vivo, rat (male Wistar); design: key to Ulcer Index, Mean: total length of hemorrhagic lesions (mm) = ulcer index; conditions: for Ulcer index compared to the control (in words): acidified ethanol model, rats; for Ulcer Index, Mean: 30 min before acidified ethanol, control 95.00
Procedure: as §1
Rats were divided into groups of six to seven animals for each experiment. Each group received either neutral pH physiologic saline (1 mL) or water extract of either quercetin, diallyl sulfide or allyl disulfide (1 mg/kg, 10 mg/kg, 50 mg/kg or 100 mg/kg; six rats for each dose) by gastric gavage. Two additional comparison groups received either the proton pump inhibitor Lansoprazole (10 mg/kg) or the H2-receptor antagonist Ranitidine (20 mg/kg). After 30 minutes of the treatment, 1 mL of acidified ethanol (60% ethanol with 150 mM HCl), an ulcerogenic agent, was administered orally to the animals. The animals were sacrificed 1 hour later by increasing the dose of the anaesthesia. The abdomen was incised, and the stomachs removed, cut open along the greater curvature, and rinsed with saline to remove any adherent particles and mucus. The open stomach was spread on a sheet of cork so as to have a clear view of gastric lesions in the gastric mucosa. The total lengths of hemorrhagic lesions, which were approximately 1 mm in length and formed in the glandular portion of the gastric mucosa, were taken as ulcer index. An observer who was unaware of the drug treatments confirmed the ulcer index. The percentage reduction of the ulcer index in the drug-treated groups was calculated from the saline treated groups. The use of 60% ethanol in 150 mM HCl to produce an ulcerogenic effect was based on earlier observation that ethanol 50% and over provided a reproducible model of gastric damage.

[3] = dose 10 mg/kg by gastric gavage
[4] = dose 50 mg/kg by gastric gavage
[5] = dose 100 mg/kg by gastric gavage

SMILES	Acid output compared to the histamine control (in words) [1]	Ulcer index compared to the control (in words) [2]	Ulcer Index, Mean ([2]; dose 1 mg/kg by gastric gavage)	Ulcer Index, Mean [2, 3]	Ulcer Index, Mean [2, 4]	Ulcer Index, Mean [2, 5]	Acid output, mean ([1]; time 0 min, 50 mg/kg oral)	Acid output, mean ([1]; time 30 min, 50 mg/kg oral)	Acid output, mean ([1]; time 45 min, 50 mg/kg oral)	Acid output, mean ([1]; time 60 min, 50 mg/kg oral)	Acid output, mean ([1]; time 75 min, 50 mg/kg oral)	Acid output, mean ([1]; time 90 min, 50 mg/kg oral)	Acid output, mean ([1]; time 105 min, 50 mg/kg oral)	Acid output, mean ([1]; time 120 min, 50 mg/kg oral)	Acid output, mean ([1]; time 135 min, 50 mg/kg oral)	Acid output, mean ([1]; time 150 min, 50 mg/kg oral)	other results
C=CCSSCC=C [Allyl disulfide]	reduced acid output compared to the histamine control	significantly reduced ulcer index compared to the control	11.67	0.00	8.33	11.00											Acid output, mean ([1]; time 0 min, 10 mg/kg oral): 2.154 μmol (15 min^−1); Acid output, mean ([1]; time 30 min, 10 mg/kg oral): 3.514 μmol (15 min^−1); Acid output, mean ([1]; time 45 min, 10 mg/kg oral): 2.458 μmol (15 min^−1); Acid output, mean ([1]; time 60 min, 10 mg/kg oral): 2.085 μmol (15 min^−1); Acid output, mean ([1]; time 75 min, 10 mg/kg oral): 2.701 μmol (15 min^−1); Acid output, mean ([1]; time 90 min, 10 mg/kg oral): 2.77 μmol (15 min^−1); Acid output, mean ([1]; time 105 min, 10 mg/kg oral): 2.648 μmol (15 min^−1); Acid output, mean ([1]; time 120 min, 10 mg/kg oral): 1.431 μmol (15 min^−1); Acid output, mean ([1]; time 135 min, 10 mg/kg oral): 1.286 μmol (15 min^−1); Acid output, mean ([1]; time 150 min, 10 mg/kg oral): 1.34 μmol (15 min^−1)
C=CCSCC=C [Allyl sulfide, Diallyl sulfide]	reduced acid output compared to the histamine control	significantly reduced ulcer index compared to the control	114.83	72.33	5.50	13.00	1.926 μmol (15 min^−1)	3.328 μmol (15 min^−1)	2.023 μmol (15 min^−1)	1.742 μmol (15 min^−1)	1.901 μmol (15 min^−1)	1.627 μmol (15 min^−1)	1.761 μmol (15 min^−1)	1.883 μmol (15 min^−1)	2.301 μmol (15 min^−1)	1.525 μmol (15 min^−1)	
Cc1c(OCC(F)(F)F)ccnc1C[S+]([O-])c1nc2ccccc2[nH]1 (centres unmarked) [Lansoprazole, reference compound]				13.00													
O=c1c(O)c(-c2ccc(O)c(O)c2)oc2cc(O)cc(O)c12 [Quercetin]	reduced acid output compared to the histamine control	significantly reduced ulcer index compared to the control	34.00	34.00	21.83	31.17	1.633 μmol (15 min^−1)	3.323 μmol (15 min^−1)	1.299 μmol (15 min^−1)	5.507 μmol (15 min^−1)	2.579 μmol (15 min^−1)	1.84 μmol (15 min^−1)	1.868 μmol (15 min^−1)	2.213 μmol (15 min^−1)	1.927 μmol (15 min^−1)	1.497 μmol (15 min^−1)	
CNC(=C[N+](=O)[O-])NCCSCc1ccc(CN(C)C)o1 [Ranitidine, reference compound]																	Ulcer Index, Mean ([2]; dose 20 mg/kg): 28.50
